In patent publication US11472788B2, “Benzoimidazoles as selective inhibitors of indoleamine 2,3-dioxygenases” (BEIGENE, LTD., priority 2017, dated 2022) one finds IC50 and EC50 data, which are given here for 25 compounds.

Where only a bound is given, the exact number is not on record here.

The target in one experiment is Recombinant IDO1 (Homo sapiens (Human), UniProt P14902). Nature of the experiment: IDO1 enzymatic assay. Format: biochemical. Conditions: 50 nM IDO1, 1.3 mM D-tryptophan, pH 7.5, read-out: Enzyme assay IC50. The method, then:
Recombinant IDO1 was overexpressed and purified from E. coli cells with an N-terminal His tag. IDO1 enzymatic assay was carried out using a methodology similar to described in the literature (J. Biol. Chem. (1980), 255, 1339-1345). The reaction mixture contains 50 nM IDO1, 1.3 mM D-tryptophan, 5 mM L-ascorbic acid, […] methylene Blue, 0.4 mg/mL catalase and compound (or DMSO) in a buffer containing 50 mM potassium phosphate pH 7.5 and 0.1% BSA. After incubation at 24° C. for 1.5 hours, absorbance of the reaction mixture was continuously read at 321 nm to monitor the formation of N′-formylkynurenine by a FULOstar OMEGA plate reader (BMG LABTECH) for 1 hour. The enzymatic activity was determined by measuring the slope of the linear absorbance increase as a function of time. The IC50s are calculated based on remaining enzyme activity in the presence of increasing concentrations of compounds.

Experiment [1] deals with cellular IDO1 in HeLa cells (Homo sapiens (Human), UniProt P14902). Nature of the experiment: HeLa Cell-Based IDO1 Kyn (Kynurenine) Production Assay. Conditions: IFN-γ induced IDO1, 48 hours incubation, Kyn absorbance at 480 nm. Put shortly: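 Compounds added to HeLa cells together with IFN-γ (100 ng/mL final) and 0.4 mM L-Trp, 48 h at 37 °C. Kynurenine in TCA-deproteinized supernatant measured colorimetrically with 4-(dimethylamino)benzaldehyde at 480 nm; IC50 from four-parameter logistic fit.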
cellular IDO1 in HeLa cells, sequence (P14902 whole entry): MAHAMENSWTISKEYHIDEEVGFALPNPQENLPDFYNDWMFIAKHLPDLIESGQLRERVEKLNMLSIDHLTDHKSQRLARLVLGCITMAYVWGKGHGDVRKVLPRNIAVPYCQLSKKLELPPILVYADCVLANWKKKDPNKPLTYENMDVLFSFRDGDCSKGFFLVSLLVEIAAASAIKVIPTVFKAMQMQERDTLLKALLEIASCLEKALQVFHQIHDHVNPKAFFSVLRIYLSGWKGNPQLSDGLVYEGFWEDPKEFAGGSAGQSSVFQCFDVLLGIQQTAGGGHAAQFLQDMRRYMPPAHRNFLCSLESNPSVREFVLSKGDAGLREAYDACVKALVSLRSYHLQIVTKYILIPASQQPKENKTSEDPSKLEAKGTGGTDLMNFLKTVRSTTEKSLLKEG

Recombinant IDO1, sequence (P14902 whole entry, species assumed): as the sequence (P14902 whole entry) above

Broadly, the IC50 is the concentration needed to halve the response being measured. By EC50 is commonly meant the concentration that produces a half-maximal response. Read a low EC50 as higher potency in that assay. Consider `Fc1cc2nc(C[C@H]3CC[C@@H](c4ccccc4)CC3)[nH]c2cc1Br` [Example A37b, 6-bromo-5-fluoro-2-(((1s,4s)-4-phenylcyclohexyl)methyl)-1H-benzo[d]imidazole], for which, at Recombinant IDO1, the IC50 stood at 6900 nM. For the same compound, the EC50 in experiment [1] was 99 nM.

For the compound `COc1ccc2[nH]c(CC3CCC(c4ccc5ccccc5n4)CC3)nc2c1` (centres unmarked) [Example A21, 2-(4-((5-methoxy-1H-benzo[d]imidazol-2-yl)methyl)cyclohexyl)quinoline], the IC50 on Recombinant IDO1 is more than 10000 nM. This compound returned a half-maximal effective concentration (EC50) in experiment [1] of 131 nM.

For `Fc1ccc2nccc([C@H]3CC[C@@H](Cc4nc5cc(F)c(F)cc5[nH]4)CC3)c2c1` [Example A6b, 4-((1s,4s)-4-((5,6-difluoro-1H-benzo[d]imidazol-2-yl)methyl)cyclohexyl)-6-fluoroquinoline], the IC50 on Recombinant IDO1 is more than 10000 nM. For the same compound, the EC50 in experiment [1] was 14 nM.

Regarding `COC(=O)c1ccc2[nH]c(CC3CCC(c4ccnc5ccc(F)cc45)CC3)nc2c1` (centres unmarked) [Example A13, methyl 2-((4-(6-fluoroquinolin-4-yl)cyclohexyl)methyl)-1H-benzo[d]imidazole-5-carboxylate], on Recombinant IDO1, the IC50 was more than 10000 nM. Further, it took 8.4 nM to reach a half-maximal effect in experiment [1] (EC50).

Turning to `Clc1ccc2[nH]c(C[C@H]3CC[C@@H](c4ccc5ncccc5c4)CC3)nc2c1` [Example A23b, 6-((1s,4s)-4-((5-chloro-1H-benzo[d]imidazol-2-yl)methyl)cyclohexyl)quinoline], the IC50 at Recombinant IDO1 came to 3250 nM. For the same compound, the EC50 in experiment [1] stood at 24 nM.

As for `Clc1ccc2[nH]c(C[C@H]3CC[C@H](c4ccc5ncccc5c4)CC3)nc2c1` [Example A23a, 6-((1r,4r)-4-((5-chloro-1H-benzo[d]imidazol-2-yl)methyl)cyclohexyl)quinoline], the concentration for half-maximal inhibition (IC50) at Recombinant IDO1 is more than 10000 nM. Also, in experiment [1], a half-maximal response (EC50) required 56 nM.

Turning to `Fc1ccc2nccc([C@H]3CC[C@H](Cc4nc5cc(F)c(F)cc5[nH]4)CC3)c2c1` [Example A6a, 4-((1r,4r)-4-((5,6-difluoro-1H-benzo[d]imidazol-2-yl)methyl)cyclohexyl)-6-fluoroquinoline], the IC50 at Recombinant IDO1 is more than 10000 nM. The same compound registered an EC50 in experiment [1] of 141 nM.

For `Fc1ccc2nccc(C3CCN(CCc4nc5cc(Cl)ccc5[nH]4)CC3)c2c1` [Example A38, 4-(1-(2-(5-chloro-1H-benzo[d]imidazol-2-yl)ethyl)piperidin-4-yl)-6-fluoroquinoline], the IC50 at Recombinant IDO1 was more than 10000 nM. Besides, the EC50 in experiment [1] stood at 143 nM.

`Fc1ccc2nccc([C@H]3CC[C@@H](Cc4nc5cc(C6CC6)ccc5[nH]4)CC3)c2c1` [Example A4b, 4-((1s,4s)-4-((5-cyclopropyl-1H-benzo[d]imidazol-2-yl)methyl)cyclohexyl)-6-fluoroquinoline]: the IC50 on Recombinant IDO1 was more than 10000 nM. Besides, the EC50 in experiment [1] was 13 nM.

`Fc1ccc([C@H]2CC[C@H](Cc3nc4cc(Cl)ccc4[nH]3)CC2)cc1` [Example A30a, 5-chloro-2-(((1r,4r)-4-(4-fluorophenyl)cyclohexyl)methyl)-1H-benzo[d]imidazole]: the IC50 on Recombinant IDO1 is more than 10000 nM. Further, the EC50 in experiment [1] is 44 nM.

With `Cc1ccc2[nH]c(C[C@H]3CC[C@@H](c4ccnc5ccc(F)cc54)CC3)nc2c1` [Example A2b, 6-fluoro-4-((1s,4s)-4-((5-methyl-1H-benzo[d]imidazol-2-yl)methyl)cyclohexyl)quinoline], the IC50 at Recombinant IDO1 is more than 10000 nM. The EC50 in experiment [1] was 53 nM.

As to “4-((1s,4s)-4-((5-chloro-1H-benzo[d]imidazol-2-yl)methyl)cyclohexyl)-6-fluoroquinoline [Example A1b]”, the IC50 on Recombinant IDO1 was more than 10000 nM. In experiment [1], this compound showed an EC50 of 8 nM.

Regarding `O=C(O)c1ccc2[nH]c(CC3CCC(c4ccnc5ccc(F)cc45)CC3)nc2c1` (centres unmarked) [Example A14, 2-((4-(6-fluoroquinolin-4-yl)cyclohexyl)methyl)-1H-benzo[d]imidazole-5-carboxylic acid], at Recombinant IDO1, the IC50 is more than 10000 nM. In experiment [1], the EC50 was more than 10000 nM.

In the case of `Cc1cc2nc(C[C@H]3CC[C@@H](c4ccnc5ccc(F)cc54)CC3)[nH]c2cc1C` [Example A9b, 4-((1s,4s)-4-((5,6-dimethyl-1H-benzo[d]imidazol-2-yl)methyl)cyclohexyl)-6-fluoroquinoline], the IC50 on Recombinant IDO1 was more than 10000 nM. Also, the EC50 in experiment [1] came out at 24 nM.

`Fc1cc2nc(C[C@H]3CC[C@H](c4ccccc4)CC3)[nH]c2cc1Br` [Example A37a, 6-bromo-5-fluoro-2-(((1r,4r)-4-phenylcyclohexyl)methyl)-1H-benzo[d]imidazole]: the IC50 at Recombinant IDO1 was more than 10000 nM. Further, the response in experiment [1] was half-maximal at 223 nM (EC50).

`FC(F)(F)c1ccc2[nH]c(C[C@H]3CC[C@@H](c4ccccc4)CC3)nc2c1` [Example A33b, 2-(((1s,4s)-4-phenylcyclohexyl)methyl)-5-(trifluoromethyl)-1H-benzo[d]imidazole]: the IC50 on Recombinant IDO1 was 8200 nM. The same compound returned an EC50 in experiment [1] of 8.2 nM.

Take `Clc1ccc2[nH]c(C[C@H]3CC[C@@H](c4ccnc5ccccc54)CC3)nc2c1` [Example A10b, 4-((1s,4s)-4-((5-chloro-1H-benzo[d]imidazol-2-yl)methyl)cyclohexyl)quinoline]: the IC50 on Recombinant IDO1 is more than 10000 nM. This compound registered an EC50 in experiment [1] of 10 nM.

With `Fc1ccc2nccc(C3CCC(Cc4nc5cc(Cl)c(Cl)cc5[nH]4)CC3)c2c1` (centres unmarked) [Example A12, 4-(4-((5,6-dichloro-1H-benzo[d]imidazol-2-yl)methyl)cyclohexyl)-6-fluoroquinoline], on Recombinant IDO1, the IC50 is more than 10000 nM. The concentration for a half-maximal effect (EC50) in experiment [1] is 11 nM.

As to `Clc1cccc2[nH]c(C[C@H]3CC[C@@H](c4ccccc4)CC3)nc12` [Example A35, 4-chloro-2-(((1s,4s)-4-phenylcyclohexyl)methyl)-1H-benzo[d]imidazole], on Recombinant IDO1, the IC50 is more than 10000 nM. The compound further yielded an EC50 in experiment [1] of 107 nM.

With `Fc1ccc2nccc(C3CCC(Cc4nc5cc(Cl)ccc5[nH]4)CC3)c2c1` (centres unmarked) [Example A1a, 4-(4-((5-chloro-1H-benzo[d]imidazol-2-yl)methyl)cyclohexyl)-6-fluoroquinoline], the IC50 on Recombinant IDO1 was more than 10000 nM. The compound also returned an EC50 in experiment [1] of 51 nM.

Take `Clc1ccc2[nH]c(CC3CCC(c4cccc5ncccc45)CC3)nc2c1` (centres unmarked) [Example A22, 5-(4-((5-chloro-1H-benzo[d]imidazol-2-yl)methyl)cyclohexyl)quinoline]: the IC50 at Recombinant IDO1 was more than 10 nM. Further, the EC50 in experiment [1] turned out to be 148 nM.

`Clc1ccc2[nH]c(C[C@H]3CC[C@H](c4ccnc5ccccc54)CC3)nc2c1` [Example A10a, 4-((1r,4r)-4-((5-chloro-1H-benzo[d]imidazol-2-yl)methyl)cyclohexyl)quinoline]: the IC50 on Recombinant IDO1 was more than 10000 nM. Further, the EC50 in experiment [1] is 91 nM.

Regarding `FC(F)(F)c1ccc2[nH]c(C[C@H]3CC[C@H](c4ccccc4)CC3)nc2c1` [Example A33a, 2-(((1r,4r)-4-phenylcyclohexyl)methyl)-5-(trifluoromethyl)-1H-benzo[d]imidazole], the IC50 at Recombinant IDO1 was more than 10000 nM. The compound further had an EC50 in experiment [1] of more than 10000 nM.

On to `Fc1ccc2nccc(N3CCC(Cc4nc5cc(Cl)ccc5[nH]4)CC3)c2c1` [Example A41, 4-(4-((5-chloro-1H-benzo[d]imidazol-2-yl)methyl)piperidin-1-yl)-6-fluoroquinoline], for which the IC50 at Recombinant IDO1 was more than 10000 nM. The EC50 in experiment [1] was determined as 481 nM.

For `c1ccc2nc(C3CCC(Cc4nc5ccccc5[nH]4)CC3)ccc2c1` (centres unmarked) [Example A20, 2-(4-((1H-benzo[d]imidazol-2-yl)methyl)cyclohexyl)quinoline], the IC50 on Recombinant IDO1 was more than 10000 nM. In experiment [1], the EC50 stood at 89 nM.
